US20230021957A1, “USE OF PSILOCIN, […] ANALOGS THEREOF IN WEIGHT LOSS, TREATMENT OF OBESITY AND COMPULSIVE EATING DISORDER” (NEONMIND BIOSCIENCES INC., priority 2019, published 2023)

Legend:
[1] = Weight loss in obese males, gel tabs on weekdays for 2 months; format: in vivo, human; settings: 2.5 mg gel tab every morning on weekdays
Description: 12 males all weighing between 250 and 275 lbs and all having BMI indexes between 30 and 35 kg/m^2 are split into two groups. The first is provided with placebo gel tabs; the second with indistinguishable gel tabs containing 2.5 mg of purified synthetically produced psilocin in a pharmaceutically acceptable carrier. Both groups are instructed to take one gel tab every morning, before breakfast, on weekdays, with weekends off, for 2 months. At the end of the two months, the first (placebo) group is found to have a similar weight as before the treatment, whereas the treatment group loses an average of 12 lbs each.

[2] = Weight gain of rats on a high calorie diet, once daily psilocybin for five days; format: in vivo, Sprague-Dawley rats; settings: for total weight gain over the 5 day period: control 27.8
Description: In order to determine whether psilocybin has anorectic—and therefore weight loss—properties, a preclinical study of the drug was conducted, using a well-validated animal model. Rodent models of food consumption and weight gain have a strong homology with humans, as rodents are omnivores with a very similar metabolic physiology. […] The goal of the present study was to cause accelerated weight gain with a high calorie diet, consisting of a highly palatable food with a large proportion of fat and carbohydrate, compared to standard animal food, which is designed to maintain a healthy weight. We evaluated whether treatment with two different doses of psilocybin could reduce the accelerated weight gain caused by this diet.
Adult, male Sprague-Dawley rats were purchased from the animal supplier, and then housed in pairs in polycarbonate cages, with access to water and standard rat food ad libitum. Rats were given a period of time to acclimate to the animal colony. They were then all given unlimited access to a highly palatable diet that is very high in carbohydrate and fat (consisting predominantly of a hazelnut-flavored chocolate spread combined with peanut butter) that has been used routinely in multiple published studies with rats to study rapid weight gain (Hansen et al., Acta pharmacologica Sinica. 2012; 33(2):194-200). Animals were randomly assigned to one of three treatment groups, which consisted of once daily administration of either a lower dose (5 mg/kg; n=7 animals) of psilocybin, a higher dose (20 mg/kg; n=7 animals) of psilocybin, or no psilocybin (n=12 animals). The psilocybin was supplied by the Katz Group at the University of Alberta, and was legally approved by an exemption from Health Canada.
Rats were administered the drug approximately two hours before the lights went off in the animal colony, which is when feeding typically commences. Animals were free to consume as much of the regular rat food or high calorie diet as they wished. They were weighed each day prior to drug treatment, to determine how much weight had been gained in the previous 24 hours. The study administered the drug over five consecutive days. Data were statistically analyzed by (SPSS Version 24 software package) using a one-way Analysis of Variance (ANOVA) with a LSD-post hoc test to detect between-group differences.

[3] = tested on: compulsive eating disorder; experiment: Self-reported instances of compulsive eating over two months; settings: once a day with breakfast for two months; compared to first two months without treatment

Row | SMILES | fasting glucose levels [1] | insulin resistance [1] | levels of hypertension [1] | lipid count in the blood stream [1] | average weight loss ([1]; males 250-275 lbs, BMI 30-35) [lbs] | reduction in weight gain vs control ([2]; 5 mg/kg once daily, 5 days) [%] | total weight gain over the 5 day period ([2]; 5 mg/kg once daily) [grams] | cumulative weight gain, day-by-day comparison with controls ([2]; 20 mg/kg) | relative weight gain, day-by-day comparison with controls ([2]; 20 mg/kg) | reduction in weight gain vs control ([2]; 20 mg/kg once daily, 5 days) [%] | total weight gain over the 5 day period ([2]; 20 mg/kg once daily) [grams] | decrease of weight gain (summary) ([2]; both doses of psilocybin) | total relative weight gain (relative to baseline weight) ([2]; both psilocybin groups (5 and 20 mg/kg), 5 days, controls 8.4%) [%] | decrease in relative weight gain vs controls ([2]; both psilocybin groups (5 and 20 mg/kg), 5 days, p=0.01) [%] | relative weight gain, day-by-day comparison with controls ([2]; both psilocybin groups (5 and 20 mg/kg), p<0.05) | weight gain per day ([2]; both psilocybin-treated groups (5 and 20 mg/kg once daily), control 5-8) | cumulative weight gain, day-by-day comparison with controls ([2]; both psilocybin-treated groups (5 and 20 mg/kg)) | self-reported instances of compulsive eating [3]
1 | CN(C)CCc1c[nH]c2cccc(O)c12 [psilocin, 4-hydroxy-N,N-dimethyltryptamine] | lower fasting glucose levels | decreased insulin resistance | lower levels of hypertension | lower lipid count in the blood stream | 12 |  |  |  |  |  |  |  |  |  |  |  |  | 
2 | CN(C)CCc1c[nH]c2cccc(OP(=O)(O)O)c12 [psilocybin] |  |  |  |  |  | 31 | 19.4 | significantly reduced weight gain compared to controls by Day 3 | gained statistically less relative weight by day 3 | 28 | 20.1 | approximately one third | 5.7 | 32 | gained less relative weight by day 4 | 1-8 grams per day | significantly decreased weight gain compared to controls | decrease in compulsive eating
